Data published in US8119614B2, “Substitution derivatives of N6-benzyladenosine, methods of their preparation, their use for preparation of drugs, cosmetic preparations and growth regulators, pharmaceutical preparations, cosmetic preparations and growth regulators containing these compounds” (Ustav Experimentalni Botaniky Akademie Ved Ceske Republiky, priority 2002, dated 2012).

Assays:
[1] = tested on: HL-60 cells; assay: Induction of apoptosis in HL-60 cells (nuclear morphology, DNA fragmentation); type: cell-based, human; conditions: 24 h (FIG. 5-7)
Experimental: (§1) Cell culture. A suspension of human promyelocytic HL-60 cells was cultured in RPMI-1640 medium supplemented with a 10% calf foetal serum and antibiotics in 5% CO2 atmosphere at 37° C. Cells were maintained at density from 1×10^5 to 6×10^5 cells per ml. HL-60 cells were obtained from ECACC.
Morphological analysis of cell nuclei. Cells were harvested, washed in PBS, and fixed in an ice-cold methanol+acetic acid (3:1) fixation mixture. Aliquots of cells were spread on glass slides and stained with Hoechst 33342 (2 μg/ml) in PBS. The morphology of cell nuclei was examined by a fluorescence microscope (Mlejnek and Kuglik 2000).
DNA fragmentation assay. Aliquots of cells were washed in PBS and lysed by addition of DNA lysis buffer (50 mM Tris/HCl, pH=8.0, 10 mM EDTA, 0.5% sodium lauroyl sarcosine, and 0.5 mg/ml proteinase K) at 37° C. overnight. Samples were treated further with DNase-free RNase-A (0.2 mg/ml) at 37° C. for 3 h. The resulting extracts were loaded onto 1.8% agarose gel containing ethidium bromide (Mlejnek and Kuglik 2000).

[2] = tested on: caspase-3; assay: Caspase protease activity measurement in cell extracts, caspase-3; type: cell-based, human; conditions: 20 μM, substrate Ac-DEVD-AMC (FIG. 9)
Experimental: (§2) Caspase protease activity measurement. Cells were washed in PBS and then extracted in buffer [50 mM HEPES, pH 7.4, 1 mM EDTA, 0.1% Chaps, 5 mM DTT, and proteinase inhibitor cocktail (Roche)] on ice. Cell extracts were centrifuged for 30 min at 30 000×g at 4° C. Clarified extract were immediately analysed or stored at −80° C. Measurement of proteolytic activity was done using synthetic fluorogenic substrates Ac-DEVD-AMC and Ac-LEHD-AMC for caspase-3 and -9, respectively. The assay was carried out in 1 ml tubes, aliquots of lysates (200-300 μg of total protein) were mixed with 1 ml of buffer (25 mM PIPES/KOH, 2 mM EGTA, 5 mM DTT, and 0.1% Chaps, pH 7.3) and reactions were initiated by adding 50 μM substrate. Samples were incubated for 1 hour at 30° C. before the fluorescence was determined. Excitation and emission wavelengths were the same for both substrates (380 nm and 445 nm, respectively).

[3] = tested on: caspase-9; assay: Caspase protease activity measurement in cell extracts, caspase-9; type: cell-based, human; conditions: 20 μM, substrate Ac-LEHD-AFC (FIG. 9)
Experimental: as §2, with “Measurement of proteolytic activity was done using synthetic fluorogenic substrates Ac-DEVD-AMC and Ac-LEHD-AMC for caspase-3 and -9, respectively.” left out

[4] = tested on: HL-60 cells; assay: Cell cycle analysis (flow cytometry); type: cell-based, human; conditions: 5 μM, 24 h (FIG. 8)
Experimental: as §1
Cell cycle analysis. Cells were washed in PBS and then fixed in 70% ethanol at −20° C. over night. Fixed cells are washed in PBS and stained in PBS containing PI (20 μg/ml) and RNase A (100 μg/ml) for 30 min at 37° C. prior to FACScan analysis (Mlejnek and Kolman 1999).

[5] = tested on: Rosa hybrida ‘Pailin’; assay: Early shoot senescence inhibition of tissue cultured roses; type: in vivo; conditions: 10 μM in medium
Experimental: Rosa hybrida ‘Pailin’ (a cut rose) was cultured in 350 ml vessels with a screw on polycarbonate lid. Each culture vessel contained 100 ml autoclaved medium (120° C., 20 min). The cultures were maintained at 23±2° C. under a 16 h photoperiod at […] m^−2 s^−1 PAR. The basal medium (MBR) contained Murashige and Skoog (1962) macroelements, microelements and vitamins, 36.7 mg/l NaFeEDTA, 50 mg/l NaFeEDDHA, […], 30 g/l sucrose, 100 mg/l glycine, 50 mg/l calcium pantothenate, 100 mg/l L-glutamine and 7 g/l agar-agar. This medium was supplemented with 10 μM of the tested cytokinin. New cytokinins were filter sterilised and added after autoclaving the medium in the vessels. 6-Benzylaminopurine (BAP) was used as a standard compound; the control medium didn't contain any cytokinin. After a culture period of 6 weeks, scoring senescence symptoms was started.

SMILES	induction of HL-60 cell death / apoptosis [1]	activation of caspase-3 [2]	activation of caspase-9 [3]	effect on cell cycle [4]	senescence / dying of rose explants (in words) ([5]; listed as 3MeOBAPR)	senescence / dying of rose explants (in words) ([5]; listed as mMeOBAPR)
COc1cccc(CNc2ncnc3c2ncn3[C@@H]2O[C@H](CO)[C@@H](O)[C@H]2O)c1O [2-hydroxy-3-methoxybenzylamino, 6-(2-hydroxy-3-methoxybenzylamino)purine riboside]	induce HL-60 cell death, with typical morphological and biochemical characteristics of apoptosis	activate caspase proteases, especially caspase-9 and -3	activate caspase proteases, especially caspase-9 and -3	does not inhibit cell cycle in certain control point(s), but rather unspecifically		
COc1cccc(CNc2ncnc3c2ncn3[C@@H]2O[C@H](CO)[C@@H](O)[C@H]2O)c1 [3-methoxybenzylamino, 6-(3-methoxybenzylamino)purine riboside]					Even after 121 days almost all plants were still alive	vigorous Rosa plantlet after 121 days of cultivation
